Experimental data published in PubChem BioAssay (NCI).
“And” between values parts separate entries of the source, which are not always exact repeats. Equal values may be shown once.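 Five concentrations, 48 hours, 96-well plates. GI50: concentration for 50% inhibition of growth. TGI: concentration producing complete growth inhibition.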

Tests used:
Assay in all cases: growth of human tumour cells (NCI), 48 h
[1] = test system: MDA-MB-468 breast
[2] = test system: HCT-15 colon
[3] = test system: SR leukemia
[4] = test system: K-562 leukemia
[5] = test system: MOLT-4 leukemia

Compound | GI50 [1] | TGI [1] | other results
O=C1C(Nc2ccccn2)=C(I)C(=O)c2ncccc21 | 1.22 µM | 2.77 µM | 
Cc1ccc(NC2=C(Cl)C(=O)c3nc(C)ccc3C2=O)cc1 | 0.329 µM | 1.31 µM | 
O=C(N/N=C/c1cc2ccccc2c2ccccc12)c1cc(O)c(O)c(O)c1 | 2.46 µM | 6.88 µM | 
COc1cc2cc(C(=O)O)[nH]c2cc1OCc1ccccc1 | > 100 µM | > 100 µM | 
CCOC(=O)c1c(C)c2c(n1C)CSc1cc(S(=O)(=O)c3ccccc3)c(=O)[nH]c1-2 | 14.2 µM | > 100 µM | 
O=C1Nc2ccccc2SC1C1SC(=S)N(Cc2ccccc2)C1=O (configuration not stated) | 1.05 µM | 23.4 µM | 
CCOC(=O)C(=Cc1ccc(Br)cc1)C(=O)OCC | 1.67 µM | 3.45 µM | 
COCCOC(C)C(/C=N/NC(N)=S)=N/NC(N)=S (configuration not stated) | 0.0217 µM | > 100 µM | 
Cc1cc(N2CCN(C)CC2)nc(NC2CCCC(Nc3ccnc4cc(Cl)ccc34)C2)n1 (configuration not stated) | 1.67 µM | 4.36 µM | 
CCN(C)S(=O)(=O)Nc1cccc(Nc2ncnc3cc(NC(=O)CCl)ccc23)c1Cl | 2.34 µM | 6.7 µM | 
C=CC(=O)Nc1cc2c(Nc3ccc(OCc4ccccn4)c(Cl)c3)ncnc2cc1OCCN1CCOCC1 | 0.0143 µM | 0.282 µM | 
COc1cc2c(cc1OC)C(Sc1ccc(F)cc1)c1c(nc(N)c(C#N)c1N)O2 (configuration not stated) | 0.511 µM | 1.84 µM | 
Cc1cc(NC(=O)CCc2ccc(N3C(N)=NC(N)=NC3(C)C)cc2)ccc1S(=O)(=O)F | 0.736 µM | > 82.9 µM | 
C=CCSc1n[nH]c(-c2cccs2)n1 | > 100 µM | > 100 µM | 
CCCn1cnc2c(c1=N)C(c1ccc(OC)cc1)c1sc3c(CC)cccc3c1O2 (configuration not stated) | 0.422 µM | 4.27 µM | 
CN(C)CCCC1(c2ccc(F)cc2)OCc2cc(-c3ccc4cc[nH]c4c3)ccc21 (configuration not stated) | 1.75 µM | 3.44 µM | 
O=[N+]([O-])c1ccc(N(CCO)CCO)c2c1no[n+]2[O-] | 0.625 µM | 2.86 µM | 
O=C(NNc1nc2cc(F)ccc2n2c(CN3CC4(COC4)C3)ccc12)c1cnccn1 | 0.302 µM | 1.24 µM | 
Cc1cc(C)cc(C(=O)Nc2cccc(-c3cn(-c4ccc(S(N)(=O)=O)cc4)nn3)c2)c1 |  |  | GI50 [2]: > 10 µM; TGI [2]: > 10 µM; GI50 [3]: 1.83 µM; TGI [3]: > 10 µM; GI50 [4]: 2.92 µM; TGI [4]: > 10 µM; GI50 [5]: 5.58 µM; TGI [5]: > 10 µM

Compound | GI50 [1] | TGI [1] | other results
COC(=O)c1c2c(c(C)[n+]([O-])c1C)C(=O)C(NCc1ccc(F)c(Cl)c1)=CC2=O | 1.12 µM | 3.04 µM | 
Cc1ccnc2c1NC(=O)c1cccnc1N2C1CC1 | > 100 µM | > 100 µM | 
COc1cc(/C=C2\C(=O)N(c3c(Cl)cccc3Cl)c3ccccc32)cc(OC)c1O | 2.27 µM | 12.9 µM | 
O=S(=O)(Nc1ccc(Cl)c(C(F)(F)F)c1)c1ccc(-c2cnc(C3CC3)o2)cc1 | 0.144 µM | 3.1 µM | 
NC(N)=NC(N)=NCCc1ccccc1 | 6.58 µM and 15 µM | 94.9 µM and > 100 µM | 
Cc1oc2c(c1C(=O)c1ccccc1)C(=O)c1ccccc1C2=O | 1.74 µM | 3.26 µM | 
O=[N+]([O-])c1ccc2nc(N/N=C/c3ccc(O)cc3)sc2c1 | 3.91 µM | 20.8 µM | 
N#CC1=C(N)Oc2c(sc3c(F)cccc23)C1c1ccc([N+](=O)[O-])cc1 (configuration not stated) | 0.0787 µM | 0.902 µM | 
C[C@]12CC[C@@H]3c4ccc(O)cc4CC[C@H]3[C@@H]1CC[C@@H]2NS(=O)(=O)c1cccc(Br)c1 | 2.43 µM | 11.5 µM | 
CCn1c2ccccc2c2cc(-n3nncc3-c3ccccc3)ccc21 | 0.437 µM | > 100 µM | 
CC/C(=C(\c1ccc(O)cc1)c1ccc(OCCNC)cc1)c1ccccc1 | 1.59 µM and 1.53 µM and 1.51 µM | 3.2 µM and 2.98 µM and 3.21 µM | 
NC(=O)c1c(OCc2c(F)cc(Br)cc2F)nsc1NC(=O)NCCCCN1CCCC1 | 1.49 µM | 3.18 µM | 
N#Cc1ccc(-n2cnc(NC(=O)[C@H]3CCN(C#N)C3)c2)cc1 | 0.337 µM | 2.45 µM | 
CS(=O)(=O)c1ccc(C(F)(F)F)cc1NC(=O)Nc1cnc(Oc2ccc(-c3cc(Cl)cnc3N)cc2)nc1 | 2.02 µM | 7 µM | 
O=C(Nc1ccc(-n2cc(-c3ccncc3)c(-c3ccc(Cl)c(O)c3)n2)cc1)c1cc(Cl)cc(Cl)c1 | 6.07 µM | > 100 µM | 
O=C(Oc1ccc([N+](=O)[O-])cc1)N1CCC(C(O)(c2ccc3c(c2)OCO3)c2ccc3c(c2)OCO3)CC1 | > 100 µM | > 100 µM | 
C#C[C@]1(O)CC[C@H]2[C@@H]3CC=C4c5nc(Nc6ccc(OC)cc6OC)sc5CC[C@]4(C)[C@H]3CC[C@@]21C | 1.84 µM | 4.08 µM | 
N#Cc1cccc(Nc2nccc(-c3cnn4ncccc34)n2)c1 | 0.00804 µM | 0.0293 µM | 
Nc1cc(C(F)F)c(-c2nc(N3[C@@H]4CC[C@H]3COC4)nc(N3[C@@H]4CC[C@H]3COC4)n2)cn1 | 0.249 µM | 3.03 µM | 
